Columns and labels:
[1] = test system: NF-κB/p65 nuclear translocation in KYSE-150 cells; assay: NF-κB/p65 nuclear translocation upon serum stimulation in ESCC cells; format: cell-based, human; conditions: 10% FBS stimulation 1 h (about 84% without treatment)
Method: (§1) Compound (A) was tested on blocking nuclear factor kappa B (NF-κB/p65) nuclear translocation upon serum stimulation in ESCC cells. KYSE-150 cells were starved in medium supplemented with 0.1% FBS for 24 h. […] Upon 10% FBS stimulation for 1 h, NF-κB/p65 appeared to translocate to nuclei evidenced by co-localization of nuclei in about 84% of KYSE-150 cells.

[2] = test system: NF-κB/p65 in tumor tissues; assay: Immunofluorescence staining of xenograft tumor tissues (nuclear NF-κB/p65, cyclin D1); format: in vivo, mouse
Method: (§2) The anti-tumor effect of Compound (A) was determined in a KYSE-150 mouse xenograft model. Briefly, 10^6 cells were injected into the flank region. Mice were randomized according to body weight into two groups of five. A week after tumor cell injection, mice either received the vehicle or intra-peritoneal administration of Compound (A) at 20 mg/kg every 2 days for a 2 week period. At the end of the study period, animals were sacrificed and the tumors harvested.
as §1

KYSE-30 = assay: Anti-proliferative effect in human ESCC cell lines (MTT assay); format: cell-based; conditions: KYSE-30, MTT, 48-72 h incubation, read-out: IC50, cell viability
Method: (§3) ESCC cell lines (KYSE-30, KYSE-150, KYSE-790, and KYSE-70) were plated in 96-well plates and incubated with desired concentrations of Compound A for 48-72 h. At the end of the incubation period, MTT (3-(4,5-dimethylthiazol-2-yl)-2,5-diphenyltetrazolium bromide) was added. The plate was placed on a shaker for 5 min to mix the formazan and the optical density at 560 nm was measured on a spectrophotometer. Data were plotted using Graphpad Prism for calculation of the IC50 concentrations.

KYSE-150 = assay: as above; format: cell-based; conditions: KYSE-150, MTT, 48-72 h incubation, read-out: IC50, cell viability
Method: as §3

KYSE-70 = assay: as above; format: cell-based; conditions: KYSE-70, MTT, 48-72 h incubation, read-out: IC50, cell viability
Method: as §3

[3] = test system: KYSE-150 mouse xenograft model; assay: Anti-tumor effect in esophageal cancer xenograft; format: in vivo; conditions: 20 mg/kg intra-peritoneal every 2 days for 2 weeks, KYSE-150 xenograft mice
Method: as §2

KYSE-780 = assay: Anti-proliferative effect in human ESCC cell lines (MTT assay); format: cell-based; conditions: KYSE-780, MTT, 48-72 h incubation, read-out: IC50, cell viability

SMILES | number of cells with NF-κB/p65 nuclear localization ([1]; 20 μM) | nuclear NF-κB/p65 positive cells number in tumor tissues ([2]; immunofluorescence of tumor tissues, 41% in control animals) | expression of cyclin D1 in tumors compared with control group animals ([2]; tumors removed from treated animals) | IC50 (KYSE-30) | IC50 (KYSE-150) | IC50 (KYSE-70) | tumor growth compared to vehicle treated control group [3] | IC50 (KYSE-780) | number of cells with NF-κB/p65 nuclear localization ([1]; 10 μM)
Cc1nnsc1C(=O)Nc1ccc(-n2nc(C(F)(F)F)cc2C(F)(F)F)cc1 [BTP-2, reference compound] | 8.53% | – | – | – | – | – | – | – | –
O=C(Cc1ccc2ncccc2c1)Nc1ccc(-n2nc(C3CC3)cc2C2CC2)cc1 [Compound (A), N-(4-(3,5-dicyclopropyl-1H-pyrazol-1-yl)phenyl)-2-(quinolin-6-yl)acetamide] | – | 9% | dramatically reduced | 1200 nM | 1400 nM | 1400 nM | significantly reduced tumor growth | 5500 nM | 10.52%

Source: patent publication US20200237743A1, “CRAC CHANNEL MODULATORS FOR TREATING ESOPHAGEAL CANCER” (Rhizen Pharmaceuticals SA, priority 2017, published 2020)
